Test: xn = mol fraction of the nth substance listed

CC(=O)CC(C)(C)O + CC(C)O
viscosity [mPa·s], 100 kPa
Conditions | x2 = 0.1 | x2 = 0.2 | x2 = 0.3 | x2 = 0.4 | x2 = 0.5 | x2 = 0.6 | x2 = 0.7 | x2 = 0.8 | x2 = 0.9
303.15 K | 2.39 | 2.29 | 2.19 | 2.09 | 2 | 1.91 | 1.84 | 1.78 | 1.75
323.15 K | 1.5 | 1.43 | 1.36 | 1.29 | 1.23 | 1.18 | 1.12 | 1.08 | 1.04

CCN(CC)CCO + CC(=O)N(C)C
viscosity [mPa·s], 101 kPa
Conditions | 298.15 K | 308.15 K | 318.15 K
x2 = 0.0505 | 2.874 | 2.164 | 1.669
x2 = 0.0999 | 2.683 | 1.999 | 1.517
x2 = 0.1499 | 2.512 | 1.849 | 1.374
x2 = 0.2004 | 2.356 | 1.715 | 1.254
x2 = 0.2997 | 2.089 | 1.502 | 1.08
x2 = 0.3997 | 1.871 | 1.314 | 0.956
x2 = 0.5008 | 1.677 | 1.207 | 0.861
x2 = 0.5998 | 1.51 | 1.103 | 0.792
x2 = 0.6995 | 1.357 | 1.015 | 0.747
x2 = 0.7989 | 1.2 | 0.932 | 0.721
x2 = 0.8997 | 1.046 | 0.854 | 0.7

— the CheMixHub viscosity set
